The assay addresses T1, 5-LO (Homo sapiens, UniProt P09917).
T1 construct: incubating a test compound with heparinised human blood, prior to challenge with the calcium ionophore A23187; endogenous in cells; host or cells: heparinised human whole blood (leukocytes)
T1 sequence (P09917 1-674): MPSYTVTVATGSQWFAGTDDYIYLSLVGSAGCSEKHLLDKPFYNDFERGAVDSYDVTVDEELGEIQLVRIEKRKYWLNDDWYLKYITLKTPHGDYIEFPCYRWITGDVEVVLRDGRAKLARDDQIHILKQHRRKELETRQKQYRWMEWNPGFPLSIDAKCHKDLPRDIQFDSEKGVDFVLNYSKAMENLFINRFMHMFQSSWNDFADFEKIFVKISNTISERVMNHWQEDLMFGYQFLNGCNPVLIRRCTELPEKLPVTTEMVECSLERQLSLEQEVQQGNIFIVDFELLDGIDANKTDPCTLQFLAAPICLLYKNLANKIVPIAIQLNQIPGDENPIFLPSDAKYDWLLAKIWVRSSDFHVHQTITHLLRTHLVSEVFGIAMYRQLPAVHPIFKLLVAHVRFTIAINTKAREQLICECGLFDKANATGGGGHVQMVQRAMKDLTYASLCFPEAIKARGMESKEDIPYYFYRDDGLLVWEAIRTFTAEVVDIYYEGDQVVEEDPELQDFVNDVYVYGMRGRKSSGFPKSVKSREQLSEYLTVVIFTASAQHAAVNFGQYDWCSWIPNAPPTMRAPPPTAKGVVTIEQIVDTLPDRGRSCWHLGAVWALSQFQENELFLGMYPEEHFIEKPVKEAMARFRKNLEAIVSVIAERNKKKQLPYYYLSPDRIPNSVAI
Nature of the assay: heparinised human blood challenged with calcium ionophore A23187, radioimmunoassay of LTB4 (test b). In kind it is cell-based. To be noted: individual compounds, read-out: IC50 against LTB4. How it is done: As stated previously, the compounds of the formula I are inhibitors of the enzyme 5-LO. […] This test provides a measure of the intrinsic inhibitory properties against soluble 5-LO in an extracellular environment. • b) An in vitro assay system involving incubating a test compound with heparinised human blood, prior to challenge with the calcium ionophore A23187 and then indirectly measuring the inhibitory effects on 5-LO by assaying the amount of LTB4 using the specific radioimmunoassay described by Carey and Forder (F. Carey and R.A. Forder, Brit. […] The effects of a test compound on the enzyme cyclooxygenase (which is involved in the alternative metabolic pathway for arachidonic acid and gives rise to prostaglandins, thromboxanes and related metabolites) may be measured at the same time using the specific radioimmunoassay for thromboxane B2(TxB2) described by Carey and Forder (see above). […] It permits the selectivity of the inhibitory effect on 5-LO or cyclooxygenase to be assessed. • c) An ex vivo assay system, which is a variation of test b) above, involving administration of a test compound (usually orally as the suspension produced when a solution of the test compound in dimethylsulphoxide is added to carboxymethylcellulose), blood collection, heparinisation, challenge with A23187 and radioimmunoassay of LTB4 and TxB2. […]

We go through two molecules from patent publication EP0409414B1, “Diaryl ether cycloalkanes” (IMPERIAL CHEMICAL INDUSTRIES PLC, priority 1989, dated 1991).

pIC50: −log10 of the molar value.

For the molecule `C=CCO[C@@]1(c2cc(F)cc(Sc3ccc4ccccc4c3)c2)CCC[C@@H]1OC` (racemic) [Example 2, (1RS,2SR)-1-allyloxy-1-[5-fluoro-3-(naphth-2-ylthio)phenyl]-2-methoxycyclopentane], the pIC50 was roughly 6.70.
For the molecule `CO[C@H]1CCC[C@@]1(OC)c1cc(F)cc(Sc2ccc3ccccc3c2)c1` (racemic) [Example 1, (1RS,2SR)-1-[5-fluoro-3-(naphth-2-ylthio)phenyl]-1,2-dimethoxycyclopentane], the negative logarithm of the IC50 (pIC50) is roughly 6.70.
